The subject of assay [1] is IPOHE (Ipomoea hederacea, ivyleaf morningglory). Put plainly: Postemergence foliar-applied mixtures, direct seeded rice, greenhouse. Format: in vivo, Ipomoea hederacea Jacq. The settings on record: post-emergence. The source says:
(§1) Seeds or nutlets of the desired test plant species were planted in a soil matrix prepared by mixing a loam or sandy loam soil (e.g., 28.6 percent silt, 18.8 percent clay, and 52.6 percent sand, with a pH of about 5.8 and an organic matter content of about 1.8 percent) and calcareous grit in an 80 to 20 ratio. The soil matrix was contained in plastic pots with a volume of 1 quart and a surface area of 83.6 square centimeters (cm^2). When required to ensure good germination and healthy plants, a fungicide treatment and/or other chemical or physical treatment was applied. The plants were grown for 8-22 days in a greenhouse with an approximate 14 h photoperiod which was maintained at about 29° C. during the day and 26° C. during the night. Nutrients (Peters Excel® 15-5-15 5-Ca 2-Mg and iron chelate) were applied in the irrigation solution as needed and water was added on a regular basis. Supplemental lighting was provided with overhead metal halide 1000-Watt lamps as necessary. The plants were employed for testing when they reached the first through fourth true leaf stage.
(§2) Treatments consisted of the acid or esters of 4-amino-3-chloro-5-fluoro-6-(4-chloro-2-fluoro-3-methoxy-phenyl) pyridine-2-carboxylic acid (Compound A), each formulated as an SC (suspension concentrate), and various herbicidal components alone and in combination. Forms of compound A were applied on an acid equivalent basis.
(§3) Other herbicidal components were applied on an active ingredient basis and included Photosystem II (PSII)-inhibiting herbicides propanil formulated as Stam® M4 EC, bentazon-sodium formulated as Basagran®, atrazine formulated as Atrazine 90 WDG, bromoxynil octanoate ester formulated as Buctril®, simetryne (technical grade material), simazine formulated as Princep® Caliber 90, ioxynil (technical grade material), cyanazine (technical grade material), and hexazinone (technical grade material).
(§4) Treatment requirements were calculated based upon the rates being tested, the concentration of active ingredient or acid equivalent in the formulation, and a 12 mL application volume at a rate of 187 L/ha.
(§5) For treatments comprised of formulated compounds, measured amounts of compounds were placed individually in 25 mL glass vials and diluted in a volume of 1.25% (v/v) Agri-Dex® crop oil concentrated to obtain 12× stock solutions. […] Application solutions were prepared by adding an appropriate amount of each stock solution (e.g., 1 mL) and diluted to the appropriate final concentrations with the addition of 10 mL of an aqueous mixture of 1.25% (v/v) crop oil concentrate so that the final spray solutions contained 1.25+/−0.05% (v/v) crop oil concentrate.
(§6) For treatments comprised of technical compounds, weighed amounts can be placed individually in 25 mL glass vials and dissolved in a volume of 97:3 v/v acetone/DMSO to obtain 12× stock solutions. […] Application solutions can be prepared by adding an appropriate amount of each stock solution (e.g., 1 mL) and diluted to the appropriate final concentrations with the addition of 10 mL of an aqueous mixture of 1.5% (v/v) crop oil concentrate so that the final spray solutions contain 1.25% (v/v) crop oil concentrate. When technical materials are used, the concentrated stock solutions can be added to the spray solutions so that the final acetone and DMSO concentrations of the application solutions are 16.2% and 0.5%, respectively.
(§7) For treatments comprised of formulated and technical compounds, weighed amounts of the technical materials were placed individually in 25 mL glass vials and dissolved in a volume of 97:3 v/v acetone/DMSO to obtain 12× stock solutions, and measured amounts of the formulated compounds were placed individually in 25 mL glass vials and diluted in a volume of 1.5% (v/v) crop oil concentrate or water to obtain 12× stock solutions. […]

The test system of assay [2] is BRAPP (Brachiaria platyphylla, broadleaf signalgrass). Put plainly: Pre-emergence soil-applied mixtures, greenhouse. Format: in vivo, Brachiaria platyphylla (Groseb.) Nash. To be noted: 27 DAA.
Source text: (§8) Seeds or nutlets of the desired test plant species were planted in a soil matrix prepared by mixing a loam soil (32 percent silt, 23 percent clay, and 45 percent sand, with a pH of about 6.5 and an organic matter content of about 1.9 percent) and calcareous grit in an 80 to 20 ratio. The soil matrix was contained in plastic pots with a volume of 1 quart and a surface area of 83.6 square centimeters (cm^2).
(§9) Treatments consisted of the benzyl ester of 4-amino-3-chloro-5-fluoro-6-(4-chloro-2-fluoro-3-methoxy-phenyl)pyridine-2-carboxylic acid (compound A) formulated as an SC (suspension concentrate) and various herbicidal components alone and in combination. Forms of compound A were applied on an acid equivalent basis.
(§10) Other herbicidal components were applied on an acid equivalent or active ingredient basis and included the PSII-inhibiting herbicides, atrazine formulated as Atrazine® 90WDG, metribuzin formulated as Metribuzin 75DF, simazine formulated as Princep Caliber 90, tebuthiuron formulated as Spike 80DF, cyanazine (technical grade material), hexazinone (technical grade material), linuron (technical grade material), terbuthylazine (technical grade material), and diuron formulated as Diuron 4L.
as §4
(§11) For treatments comprised of formulated compounds, measured amounts of compounds were placed individually in 25 mL glass vials and diluted in a volume of 1.25% (v/v) Agri-Dex® crop oil concentrate (COC) to obtain 12× stock solutions. […] Application solutions were prepared by adding an appropriate amount of each stock solution (e.g., 1 mL) and diluted to the appropriate final concentrations with the addition of 10 mL of an aqueous mixture of 1.25% (v/v) COC so that the final spray solutions contained 1.25% (v/v) COC.
as §6, with “97:3 (v/v)” for “97:3 v/v”, “(v/v) COC” for “(v/v) crop oil concentrate”, “(v/v) COC.” for “(v/v) crop oil concentrate.”
(§12) For treatments comprised of formulated and technical compounds, weighed amounts of the technical materials can be placed individually in 25 mL glass vials and dissolved in a volume of 97:3 (v/v) acetone/DMSO to obtain 12× stock solutions, and measured amounts of the formulated compounds can be placed individually in 25 mL glass vials and diluted in a volume of 1.5% (v/v) COC or water to obtain 12× stock solutions. […] Application solutions can be prepared by adding an appropriate amount of each stock solution (e.g., 1 mL) and diluted to the appropriate final concentrations with the addition of an appropriate amount of an aqueous mixture of 1.5% (v/v) COC so that the final spray solutions contain 1.25% (v/v) COC. As required, additional water and/or 97:3 (v/v) acetone/DMSO can be added to individual application solutions so that the final acetone and DMSO concentrations of the application solutions being compared are 8.1% and 0.25%, respectively.
(§13) All stock solutions and applications solutions were visually inspected for compound compatibility prior to application. Spray solutions were applied to the soil with an overhead Mandel track sprayer equipped with a 8002E nozzles calibrated to deliver 187 L/ha over an application area of 0.503 m^2 at a spray height of 18 inches (46 cm) above average pot height. […]

In assay [3] the test system is ECHCG (Echinochloa crusgalli, barnyardgrass). Put plainly: Postemergence foliar-applied mixtures, direct seeded rice, greenhouse. Format: in vivo, Echinochloa crusgalli (L.) Beauv. The settings on record: 625 g ai/ha; 21 DAA. The procedure:
as §1, with “When required to ensure good germination and healthy plants, a fungicide treatment and/or other chemical or physical treatment was applied.” left out
as §2, §3, §5, §6
For treatments comprised of formulated and technical compounds, weighed amounts of the technical materials were placed individually in 25 mL glass vials and dissolved in a volume of 97:3 v/v acetone/DMSO to obtain 12× stock solutions, and measured amounts of the formulated compounds were placed individually in 25 mL glass vials and diluted in a volume of 1.5% (v/v) crop oil concentrate or water to obtain 12× stock solutions. […] Application solutions were prepared by adding an appropriate amount of each stock solution (eg, 1 mL) and diluted to the appropriate final concentrations with the addition of an appropriate amount of an aqueous mixture of 1.5% (v/v) crop oil concentrate so that the final spray solutions contained 1.25% (v/v) crop oil concentrate.

In assay [4] the test system is ECHCO (Echinochloa colona, junglerice). Described as above. Format: in vivo, Echinochloa colona (L.) Link. The settings on record: 21 DAA.
Source text: as §1, §2, §3, §4, §5, §6, §7

The subject of assay [5] is XANST (Xanthium strumarium, common cocklebur). Put plainly: Pre-emergence soil-applied mixtures, greenhouse. Format: in vivo, Xanthium strumarium L. The settings on record: Terbuthylazine 1000 g ai/ha; 27 DAA.
Source text: as §8, §9, §10, §4, §11
as §6, with “97:3 (v/v)” for “97:3 v/v”, “(v/v) COC” for “(v/v) crop oil concentrate”, “(v/v) COC.” for “(v/v) crop oil concentrate.”
as §12, §13

The values that follow come from patent publication US8912121B2, “Herbicidal compositions comprising 4-amino-3-chloro-5-fluoro-6-(4-chloro-2-fluoro-3-methoxyphenyl)pyridine-2-carboxylic acid or a derivative thereof and certain PS II inhibitors” (Dow Agrosciences LLC, priority 2012, dated 2014).

Structures are written as SMILES.

For `CCNc1nc(Cl)nc(NC(C)(C)C#N)n1` [Cyanazine, 2-[[4-chloro-6-(ethylamino)-1,3,5-triazin-2-yl]amino]-2-methylpropanenitrile], the pest or weed control at 275 g/ha in assay [1] (480 h, read-out: Visual Weed Control (%) Obs, 275 g ai/ha, 20 DAA) was found to be 50%. The “Visual Weed Control (%) - 27 DAA BRAPP Obs” value is 0% in assay [2] (Cyanazine 170 g ai/ha), 15% in assay [2] (Cyanazine 440 g ai/ha) and 10% in assay [2] (Cyanazine 880 g ai/ha).
As to `CN(C)c1nc(=O)n(C2CCCCC2)c(=O)n1C` [Hexazinone, 3-cyclohexyl-6-(dimethylamino)-1-methyl-1,3,5-triazine-2,4(1H,3H)-dione, reference compound], the “Visual Weed Control (%) Obs” value in assay [3] is 20%; in assay [4] (625 g ai/ha), 25%; in assay [4] (1250 g ai/ha) it was 55%. In addition, the pest or weed control at 625 g/ha in assay [1] (504 h, 625 g ai/ha, 21 DAA, read-out: Visual Weed Control (%) Obs) worked out at 80%.
In the case of `N#Cc1cc(I)c(O)c(I)c1` [Ioxynil, 4-hydroxy-3,5-diiodobenzonitrile, reference compound], the pest or weed control at 300 g/ha in assay [1] (480 h, read-out: Visual Weed Control (%) Obs, 300 g ai/ha, 20 DAA) stood at 50%.
On to `CON(C)C(=O)Nc1ccc(Cl)c(Cl)c1` [Linuron, N′-(3,4-dichlorophenyl)-N-methoxy-N-methylurea], for which, in assay [2] (Linuron 620 g ai/ha), the “Visual Weed Control (%) - 27 DAA BRAPP Obs” value was determined as 0%.
Take `CCNc1nc(Cl)nc(NC(C)(C)C)n1` [Terbuthylazine, 6-chloro-N-(1,1-dimethylethyl)-N′-ethyl-1,3,5-triazine-2,4-diamine, reference compound]: the “Visual Weed Control (%) - 27 DAA XANST Obs” value in assay [5] is 45%.
